{"source": "paper PMC12498190", "about": "“A Photocaged N‐Phosphonopiperidinone as a Selective Photo‐Cleavable DPP8/9 Inhibitor” (Chembiochem, 2025)", "key": {"human DPP4": {"molecular_target": "T1, human DPP4 (Homo sapiens, UniProt P27487)", "T1 construct": "purchased Proteros Biostructures GmbH, Germany", "T1 sequence (P27487 whole entry)": "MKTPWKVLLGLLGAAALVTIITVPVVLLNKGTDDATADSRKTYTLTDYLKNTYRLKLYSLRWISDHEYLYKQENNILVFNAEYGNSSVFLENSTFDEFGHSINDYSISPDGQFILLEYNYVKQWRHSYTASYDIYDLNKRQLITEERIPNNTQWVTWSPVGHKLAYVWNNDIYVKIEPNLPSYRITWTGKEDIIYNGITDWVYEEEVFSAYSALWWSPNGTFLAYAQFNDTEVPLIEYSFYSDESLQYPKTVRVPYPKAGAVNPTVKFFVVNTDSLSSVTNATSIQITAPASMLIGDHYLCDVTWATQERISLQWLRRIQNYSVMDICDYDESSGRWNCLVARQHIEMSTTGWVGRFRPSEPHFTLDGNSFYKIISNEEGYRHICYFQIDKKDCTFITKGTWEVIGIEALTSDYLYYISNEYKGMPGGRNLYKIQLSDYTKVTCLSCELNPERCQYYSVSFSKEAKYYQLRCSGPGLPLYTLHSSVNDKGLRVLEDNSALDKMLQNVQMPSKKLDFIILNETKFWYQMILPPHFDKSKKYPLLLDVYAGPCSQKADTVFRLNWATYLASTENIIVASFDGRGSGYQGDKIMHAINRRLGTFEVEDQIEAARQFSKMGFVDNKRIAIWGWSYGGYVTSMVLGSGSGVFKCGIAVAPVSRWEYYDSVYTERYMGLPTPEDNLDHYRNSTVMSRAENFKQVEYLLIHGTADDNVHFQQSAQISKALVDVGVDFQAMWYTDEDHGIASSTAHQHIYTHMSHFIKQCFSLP", "assay": "DPP4 enzyme inhibition assay, AMC release from GP-AMC", "assay_type": "biochemical", "source_text": "We then continued to investigate the biochemical properties of the photocaged compound 5 versus the photoreleased product resembling inhibitor 1. To this end, we performed biochemical enzyme inhibition assays with DPP8 and DPP9 before and after irradiation of 5. Resulting DPP8/9 inhibition was quantified by following the DPP8‐ or DPP9‐mediated proteolysis of the fluorophore 7‐amino‐4‐methylcoumarin (AMC) from the model substrate Gly‐Pro‐AMC (Figure 1C,D and Table 1 ). To induce photocleavage of 5, reaction mixtures were irradiated for 5 min with the same green LED lamp as before, followed by a pre‐incubation of 45 min with the photoreleased inhibitor prior to substrate addition.\nEnzyme activity of human DPP4, DPP8, and DPP9 (Proteros Biostructures GmbH, Germany) was determined by measuring the initial velocity of AMC release from the fluorogenic substrate GP‐AMC (Sigma Aldrich, USA) using a Tecan Spark 10 M multimode microplate reader (Tecan Group Ltd., Switzerland) in activity buffer (20 mM HEPES/KOH pH 7.3, 110 mM potassium acetate, 2 mM magnesium acetate, 0.5 mM EGTA, 0.02% Tween 20, supplemented with 1 mM DTT) and a final volume of 20 μL for maximal 30 min at 30 °C. Prior to the activity measurement, 10 nM of the corresponding enzyme was incubated for 45 min at 30 °C and gentle shaking with the indicated compounds at concentrations ranging from 0 to 100 μM, followed by irradiation with a green LED lamp (λ = 520−530 nm; Eurolite, Germany) for 5 min. The corresponding compounds were dissolved in DMSO and diluted in activity buffer (final DMSO concentration: 1%). To the inhibitor–enzyme mixture, GP‐AMC was then added to a final concentration of 250 μM, and the activity measurement was started. The resulting enzyme activity was calculated from the slope (fluorescence release over time) and plotted against the concentrations of the inhibitor. Apparent IC50 values were calculated using Graph‐Pad Prism v10.4.1 using the equation: [Inhibitor] versus response‐Variable slope (four parameters). […]"}, "DPP9": {"molecular_target": "DPP9 (Homo sapiens, UniProt Q86TI2)", "sequence (Q86TI2 whole entry)": "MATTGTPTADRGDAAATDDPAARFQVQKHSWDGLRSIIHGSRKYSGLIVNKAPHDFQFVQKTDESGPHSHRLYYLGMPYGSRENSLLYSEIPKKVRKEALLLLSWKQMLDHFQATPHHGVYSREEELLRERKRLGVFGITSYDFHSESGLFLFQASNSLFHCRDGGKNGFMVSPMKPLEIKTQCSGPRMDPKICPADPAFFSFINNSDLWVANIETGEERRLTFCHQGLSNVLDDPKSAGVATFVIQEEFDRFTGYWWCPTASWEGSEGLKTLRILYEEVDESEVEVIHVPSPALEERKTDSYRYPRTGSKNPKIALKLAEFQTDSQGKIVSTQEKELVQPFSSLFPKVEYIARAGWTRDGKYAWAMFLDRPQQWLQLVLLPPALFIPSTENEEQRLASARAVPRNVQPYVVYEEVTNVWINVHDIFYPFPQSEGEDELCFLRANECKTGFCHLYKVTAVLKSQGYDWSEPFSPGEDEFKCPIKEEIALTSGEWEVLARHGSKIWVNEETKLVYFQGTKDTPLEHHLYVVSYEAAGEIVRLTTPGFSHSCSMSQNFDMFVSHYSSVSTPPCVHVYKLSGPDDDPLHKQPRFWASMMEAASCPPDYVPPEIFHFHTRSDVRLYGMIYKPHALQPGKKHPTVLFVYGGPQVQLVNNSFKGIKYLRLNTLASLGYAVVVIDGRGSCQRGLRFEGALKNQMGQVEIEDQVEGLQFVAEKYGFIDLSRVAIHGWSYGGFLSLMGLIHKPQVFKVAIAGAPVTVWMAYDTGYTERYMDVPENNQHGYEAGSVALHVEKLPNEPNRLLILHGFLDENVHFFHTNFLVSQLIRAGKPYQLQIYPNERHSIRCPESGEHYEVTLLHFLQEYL", "assay": "In vitro gel-based competitive ABPP in HEK293 cell lysates, 100 kDa band", "design": "endogenous in cells; host or cells: HEK293 (Cytion, Germany, 300192)", "conditions": "HEK293 lysate, 10 µM competitor, 30 min; for Competition of ≡FP labeling (in words): 2 µM ≡FP", "protocol": "Therefore, HEK293 cell lysates were pre‐incubated with 10 µM 5 or DMSO vehicle control for 30 min, followed by a labeling reaction with 2 µM of the serine hydrolase‐specific ABP fluorophosphonate‐alkyne (≡FP) or 10 µM 2 (Figure 2B). […] Of note, this band has been previously assigned as DPP9 (DPP8 would migrate in the same range, but is only expressed at low levels in the used cell line and therefore cannot be visualized by this approach).^[ [36] ^, [37] ^] […] Again, this labeling was observed regardless of prior irradiation. Subsequently, the competitive labeling experiment was conducted by pre‐incubation with compound 5, with or without subsequent irradiation.\nFigure 2 Competitive ABPP with photo‐cleavable inhibitor 5 in HEK293 cells. A) Schematic overview of a competitive ABPP experiment. A proteome is pre‐incubated with a competitor, followed by a labeling reaction with an activity‐based probe (ABP). In the case of a photocaged inhibitor, the active compound can be released via irradiation. Target proteins of the competitor cannot be bound by the ABP, resulting in an absence of the respective protein band in‐gel analysis. Created in BioRender. Najdzion, M. (2025) https://BioRender.com/84zn8cb B) Gel‐based competitive ABPP experiment in HEK293 cell lysates with the broadband serine hydrolase ABP ≡FP or the DPP8/9‐directed ABP 2 and the photocaged inhibitor 5, at the indicated concentrations, after or without prior irradiation with green light for 5 min. The corresponding pre‐incubation time for 5 was 30 min. C) Corresponding in situ competitive ABPP experiment in HEK293 cell culture, again with 10 µM 2 for 1 h. Labeling was competed by pre‐incubation with 20 µM 5 for 1 h, followed by an activation of the photocaged inhibitor by irradiation for 5 min with a green LED lamp, if applicable. D) Green light treatment has no cytotoxic effect. HEK293 cells were irradiated with a green LED lamp in the presence of 0.5% DMSO for 5 min (‘light’), and cell viability was measured after 24 h. […] Data was normalized to the non‐irradiated control (‘dark’). E) Green light treatment leads to the release of the active DPP8/9 inhibitor. HEK293 cells were incubated with compound 1 or 5 for 24 h. For both compounds, cell viability was measured under ‘dark’ (not irradiated) and ‘light’ (irradiated for 5 min with a green LED lamp after the addition of the inhibitor) conditions. […] Data was normalized to the non‐irradiated DMSO control.\nFor in vitro ABPP, cell lysates were generated from HEK293 cells grown on a 10 cm tissue dish. […] The cell lysates were cleared via centrifugation (30 min, 20,817 × g, 4 °C), and protein concentration was determined with a modified Bradford assay using Roti‐Nanoquant (Carl Roth, Germany). […]"}}}
{"smiles": "CCCCCc1ccc(SCCP(=O)(OCC)N2CCC[C@H](NC(=O)OCC3=C4C(C)=CC(C)=[N+]4[B-](C)(C)n4c(C)cc(C)c43)C2=O)cc1", "note": "(stereo partly drawn) [Compound 5]", "values": [{"measurement": "IC50", "setting": "human DPP4; DPP4, dark (without green light irradiation), 45 min pre-incubation, read-out: Apparent IC50", "value": "> 100", "unit": "µM"}, {"measurement": "DPP4 inhibition (in words)", "setting": "human DPP4; irradiated", "value": "not inhibited"}, {"measurement": "DPP4 inhibition (in words)", "setting": "human DPP4; non-irradiated", "value": "not inhibited"}, {"measurement": "Competition of ≡FP labeling (in words)", "setting": "DPP9; green light 5 min, 100 kDa band assigned as DPP9", "value": "labeling competition of one specific band"}, {"measurement": "Competition of ≡FP labeling (in words)", "setting": "DPP9; without irradiation", "value": "did not result in any competition"}, {"measurement": "Competition of DPP9 labeling by ABP 2 (in words)", "setting": "DPP9; 10 µM 2, green light 5 min", "value": "efficient DPP9 labeling competition"}]}
